The source of these data is US20260234116A1, “CYTOTOXIC EPOXYKETONE COMPOUNDS, PRECURSORS, COMPOSITIONS, AND METHODS OF USE” (Memorial Sloan-Kettering Cancer Center, priority 2023, published 2026).

The subject of assay [1] is chymotrypsin-like activity of the proteasome, Jurkat cell lysates. Kind of assay: Proteasome inhibition assay (abcam Proteasome Activity Assay Kit). Type of assay: biochemical. The following applies: 10 μM concentration, 1 h at 37° C. The protocol:
Epoxyketones 12 were analyzed for proteasome inhibition using a Proteasome Activity Assay Kit (abcam ab107921). The protocol was followed as described by the manufacturer, except that the proteasome sample supplied in the kit was diluted by 10-fold more than indicated in the manual to increase the number of samples that could be analyzed per kit. Thus, the supplied proteasome sample was resuspended in 100 μL ddH2O, then further diluted with 900 μL of the supplied assay buffer. The supplied proteasome inhibitor, MG-132 (benzyl [(2S)-4-methyl-1-{[(2S)-4-methyl-1-{[(2S)-4-methyl-1-oxopentan-2-yl]amino}-1-oxopentan-2-yl]amino}-1-oxopentan-2-yl]carbamate; structure illustrated below), was also diluted 10-fold to a working concentration of 1 mM in DMSO. The epoxyketones 12 and epoxomicin positive control (Selleck Chemicals) were also diluted to working stocks of 1 mM in DMSO. Proteasome samples (99 μL) were added to a white, opaque 96-well plate (PerkinElmer, OptiPlate-96) and treated with 1 μL of compound solutions (10 μM final concentration). Samples were incubated for 1 h at 37° C. then analyzed for fluorescence (λ^ex 350 nm, λ^em 440 nm) on a plate reader (Molecular Devices Spectramax M3). Three separate assay kits were used as biological replicates. Data were normalized to the average signal from the no-inhibitor negative control. […]

The subject of a further assay is U266 multiple myeloma. Kind of assay: Cytotoxicity of epoxyketones, CellTitre-Glo, 48 h. It counts as cell-based. The following applies: Homo sapiens, U-266, U266, 48 h. The protocol:
(§1) Cytotoxicity Assays. Cancer cell lines (ATCC: U266 multiple myeloma, EL4 mouse lymphoma, Raji B-cell lymphoma) were cultured in Roswell Park Memorial Institute (RPMI) medium supplemented with 10% fetal bovine serum (FBS), 2 mM L-glutamine, 100 IU/mL penicillin, 100 μg/mL nonessential amino acids, 1 mM sodium pyruvate, and 57 μM β-mercaptoethanol. Cells (90 μL) were seeded in the inner 60 wells of an opaque-wall, clear flat-bottom 96-well plate (Corning/Falcon, 351177) at 20,000 cells per well. The outer perimeter wells were filled with 200 μL PBS to reduce evaporation in the central 60 wells. Epoxyketones 12 (20 mM in DMSO) were diluted in RPMI media to 1 mM (5% DMSO final concentration). Each epoxyketone was then diluted log-fold into 10 concentrations with 5% DMSO in RPMI. Each epoxyketone solution (10 μL) was added to the cells for a 0.5% DMSO final concentration across all wells and final epoxyketone concentrations of 100-0.005 μM. Negative control wells were treated with 10 μL of 5% DMSO in RPMI. Cells were incubated with compounds for 48 h, then cytotoxicity was measured with the CellTitre-Glo assay (Promega G9241).

Another assay has as its system EL4 mouse lymphoma. Kind of assay: Cytotoxicity of epoxyketones, CellTitre-Glo, 48 h. Type of assay: cell-based. The following applies: EL4, 48 h. The protocol:
as §1

The subject of a further assay is Raji B-cell lymphoma. Briefly: Cytotoxicity of epoxyketones, CellTitre-Glo, 48 h. To be noted: Homo sapiens. Type of assay: cell-based. The protocol: as §1
A further assay deals with EL4 lymphoma cells. To be noted: reported (prepared by total synthesis); cited from earlier work.

Usually IC50 stands for the point on the concentration scale where inhibition reaches its midpoint.

Where two headings read alike, the source gives them in different places.

On to `CC(C)CCCCC(=O)N[C@@H](CO)C(=O)N[C@@H](CC(C)C)C(=O)[C@@]1(C)CO1` [Compound 12a, N-[(1S)-2-Hydroxy-1-{[(2S)-4-methyl-1-[(2R)-2-methyloxiran-2-yl]-1-oxopentan-2-yl]carbamoyl}ethyl]-6-methylheptanamide], for which the “inhibition of proteasome activity” value in assay [1] is recorded as “at a level comparable to that of epoxomicin”. In addition, the IC50 was 230 nM in the assay with U266 multiple myeloma (read-out: IC50); 229 nM with U266 multiple myeloma (read-out: log IC50 (converted)); 440 nM in the assay on EL4 mouse lymphoma (read-out: IC50); 407 nM in the assay on EL4 mouse lymphoma (read-out: log IC50 (converted)); 200 nM with Raji B-cell lymphoma (read-out: IC50); 195 nM in the assay with Raji B-cell lymphoma (read-out: log IC50 (converted)). Moreover, in the assay with EL4 lymphoma cells, the concentration for half-maximal inhibition (IC50) was 260 ± 50 nM.
